Measurements reported in patent publication US20250109140A1, “5-[5-(PIPERIDIN-4-YL)THIENO[3,2-C]PYRAZOL-2-YL]INDAZOLE DERIVATIVES AND RELATED COMPOUNDS AS MODULATORS FOR SPLICING NUCLEIC ACIDS AND FOR THE TREATMENT OF PROLIFERATIVE DISEASES” (REMIX THERAPUTICS INC., priority 2022, published 2025).
Where two headings read alike, the source gives them in different places.

Columns and labels:
HiBiT-tagged MYB protein = test: HiBiT protein abundance assay, MYB (K562 HiBiT knock-in cells); assay type: cell-based, human; conditions: 24 hours treatment
Summary of the method: (§1)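 Luminescence from the Nano-Glo HiBiT lytic reagent measured tagged protein remaining in knock-in K562 cells after 24 h compound exposure (top dose 10 µM final, 3-fold, 10 points). Responses normalized between parental K562 and DMSO-treated lines were fit by four-parameter logistic to interpolate the 50% concentration.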

HTT mRNA = test: Splicing RT-qPCR assay, HTT canonical (CJ) and alternative (AJ) junction mRNA; assay type: cell-based; conditions: Homo sapiens; for EC50: AC50 = 50% response in AJ mRNA increase
Summary of the method: (§2)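 A673/K562; 11-pt 3-fold dil., top 10 uM final, ≤0.25% DMSO; 24 h, 37 °C, 5% CO2. Lysis, then RT-qPCR of CJ/AJ isoforms, ≥duplicate. ΔCt vs housekeeper (GAPDH/GUSB/PPIA), ΔΔCt vs DMSO, RQ = 2^(−ΔΔCt), expressed as % response.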

HiBiT-tagged HTT protein = test: HiBiT protein abundance assay, HTT (K562 HiBiT knock-in cells); assay type: cell-based, human; conditions: 24 hours treatment
Summary of the method: as §1

Target C mRNA = test: Splicing RT-qPCR gene panel, Target C canonical junction (CJ) mRNA; assay type: cell-based; conditions: Homo sapiens; Table 8; larger gene panel, decrease in CJ mRNA levels
Summary of the method: as §2

[1] = system: K562 (human chronic myelogenous leukemia) cells; test: Cell viability, Cell Titer Glo 2.0 assay, K562 cells; assay type: cell-based; conditions: 72 hours
Summary of the method: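 Luminescent Cell Titer Glo 2.0 readout after 72 h exposure (37° C, 5% CO2), medium-only wells as blank. Cells plated 500/well in IMDM with 10% FBS; test compounds diluted from DMSO series 1:100 into medium, 0.1% DMSO final.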

SMN2 mRNA = test: Splicing RT-qPCR gene panel, SMN2 canonical junction (CJ) mRNA; assay type: cell-based; conditions: Homo sapiens; Table 8; larger gene panel, decrease in CJ mRNA levels
Summary of the method: as §2

Target C = test: HiBiT protein abundance assay, Target C (K562 HiBiT knock-in cells); assay type: cell-based, human; conditions: 24 hours treatment
Summary of the method: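 The readout was Nano-Glo HiBiT lytic luminescence after 24 h compound exposure at 37 °C, in 10000 K562 knock-in cells/well. Compounds ran as 10-point, 3-fold series, top final […], ≤0.25% DMSO. Responses were scaled between parental K562 and DMSO-treated controls, and IC50 was interpolated at 50% from four-parameter logistic curves.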

MYB mRNA = test: Splicing RT-qPCR assay, MYB canonical (CJ) and alternative (AJ) junction mRNA; assay type: cell-based; conditions: Homo sapiens; for EC50: AC50 = 50% response in AJ mRNA increase
Summary of the method: as §2

[2] = Table 7, RT-qPCR, A673 or K562 cells, 24 hours treatment
[3] = Table 7, IC50 = 50% response in CJ mRNA decrease, RT-qPCR, A673 or K562 cells, 24 hours treatment, read-out: HTT CJ
[4] = Table 8, larger gene panel, decrease in CJ mRNA levels, read-out: HTT CJ IC50
[5] = Table 7, IC50 = 50% response in CJ mRNA decrease, RT-qPCR, A673 or K562 cells, 24 hours treatment, read-out: MYB CJ
[6] = Table 8, larger gene panel, decrease in CJ mRNA levels, read-out: MYB CJ IC50

SMILES	IC50 (HiBiT-tagged MYB protein) [nM]	EC50 (HTT mRNA; [2]) [nM]	IC50 (HTT mRNA; [3]) [nM]	IC50 (HTT mRNA; [4]) [nM]	IC50 (HiBiT-tagged HTT protein) [nM]	IC50 (Target C mRNA) [nM]	IC50 [1] [nM]	IC50 (SMN2 mRNA) [nM]	IC50 (Target C) [nM]	EC50 (MYB mRNA; [2]) [nM]	IC50 (MYB mRNA; [5]) [nM]	IC50 (MYB mRNA; [6]) [nM]
COc1c(-c2cc3cn(C4CCNCC4)nc3s2)nn2cc(C)nc(C)c12 [Compound 219, 4-(5-{3-methoxy-4,6-dimethylpyrazolo[1,5-a]pyrazin-2-yl}thieno[2,3-c]pyrazol-2-yl) piperidine]	> 10000	> 10000	> 10000	> 10000	> 10000	> 10000	1000 to 10000	1000 to 10000	> 10000	> 10000	> 10000	> 10000
Cn1cc2cc(-n3cc4cc(C5CCNCC5)sc4n3)c(O)cc2n1 [Compound 220]	1000 to 10000	1000 to 10000	1000 to 10000	1000 to 10000	1000 to 10000	1000 to 10000	1000 to 10000	1000 to 10000	1000 to 10000	1000 to 10000	1000 to 10000	1000 to 10000
Cc1c(O)c(-c2cc3cn(C4CCNCC4)nc3s2)cc2cn(C)nc12 [Compound 221]	100 to 1000	> 10000	> 10000	> 10000	100 to 1000	> 10000	1000 to 10000	> 10000	100 to 1000	> 10000	> 10000	> 10000
Cc1cn2nc(-c3cc4cn(C5CCNCC5)nc4s3)cc2c(C)n1 [Compound 222]	1000 to 10000	1000 to 10000	1000 to 10000	1000 to 10000	100 to 1000	1000 to 10000	1000 to 10000	< 100	1000 to 10000	1000 to 10000	1000 to 10000	1000 to 10000
Cc1cn2cc(-c3cc4cn(C5CCNCC5)nc4s3)ncc2n1 [Compound 223]	1000 to 10000	1000 to 10000	1000 to 10000	1000 to 10000	1000 to 10000	1000 to 10000	1000 to 10000	100 to 1000	1000 to 10000	1000 to 10000	1000 to 10000	1000 to 10000
COc1c(-c2cc3cn(C4CCNCC4)nc3s2)cc(F)c2nn(C)cc12 [Compound 224]	> 10000	> 10000	> 10000	> 10000	> 10000	> 10000	> 10000	> 10000	> 10000	> 10000	> 10000	> 10000
Cc1cc(-c2cc3cn(C4CCNCC4)nc3s2)cc2cn(C)nc12 [Compound 225]	100 to 1000	< 100	< 100	< 100	< 100	100 to 1000	100 to 1000	< 100	< 100	100 to 1000	100 to 1000	100 to 1000
Cc1cn2cc(-c3cc4cn(C5CCNCC5)nc4s3)cc(Cl)c2n1 [Compound 226]	100 to 1000	< 100	< 100	< 100	< 100	100 to 1000	100 to 1000	< 100	< 100	100 to 1000	100 to 1000	100 to 1000
Cc1cn2cc(-n3cc4cc(C5CCNCC5)sc4n3)nc2c(C)n1 [Compound 227]	1000 to 10000	1000 to 10000	100 to 1000	100 to 1000	100 to 1000	1000 to 10000	1000 to 10000	100 to 1000	1000 to 10000	1000 to 10000	1000 to 10000	1000 to 10000
Cc1cn2cc(-c3cc4cn(C5CCNCC5)nc4s3)nc(C)c2n1 [Compound 228]	1000 to 10000	100 to 1000	100 to 1000	100 to 1000	100 to 1000	1000 to 10000	1000 to 10000	100 to 1000	1000 to 10000	1000 to 10000	1000 to 10000	1000 to 10000
Cc1cn2cc(-c3cc4cn(C5CCNCC5)nc4s3)cc(F)c2n1 [Compound 229]	100 to 1000	< 100	< 100	< 100	< 100	100 to 1000	100 to 1000	< 100	< 100	100 to 1000	100 to 1000	100 to 1000
Cn1cc2cc(-c3cc4cn([C@@H]5CCNC[C@H]5O)nc4s3)cc(F)c2n1 [Compound 273]	> 10000	1000 to 10000	> 10000	> 10000	1000 to 10000	> 10000	1000 to 10000	100 to 1000	> 10000	1000 to 10000	> 10000	> 10000
Cn1cc2cc(-c3nc4cn(C5CCNCC5)nc4s3)cc(F)c2n1 [Compound 1100, 7-fluoro-2-methyl-5-[2-(piperidin-4-yl)pyrazolo[4,3-d][1,3]thiazol-5-yl]indazole]	100 to 1000	100 to 1000	100 to 1000	100 to 1000	< 100	100 to 1000	1000 to 10000	< 100	100 to 1000	100 to 1000	100 to 1000	100 to 1000
Cc1cc(-c2nc3cn(C4CCNCC4)nc3s2)cc2cn(C)nc12 [Compound 1101]	100 to 1000	100 to 1000	< 100	< 100	< 100	100 to 1000	100 to 1000	< 100	< 100	100 to 1000	100 to 1000	100 to 1000
